From ChEMBL document CHEMBL1212812, “Multi-target spectral moment QSAR versus ANN for antiparasitic drugs against different parasite species” (Bioorg Med Chem, 2010) come the findings set out here.

One assay concerns Cryptosporidium parvum. Kind of assay: Antimicrobial activity against Cryptosporidium parvum. It counts as functional, organism-based.
The test system of another assay is Trypanosoma brucei. Kind of assay: Antimicrobial activity against Trypanosoma brucei. It counts as functional, organism-based.
The subject of a further assay is Trypanosoma cruzi. Kind of assay: Antimicrobial activity against Trypanosoma cruzi. As to conditions: Trypanosoma cruzi. It counts as functional, organism-based.
The subject of a further assay is Plasmodium falciparum. Kind of assay: Antimicrobial activity against Plasmodium falciparum. It counts as functional, organism-based.
The test system of the next assay is Leishmania mexicana. Kind of assay: Antimicrobial activity against Leishmania mexicana. It counts as functional, organism-based.
For the next assay, the system named is Leishmania. Kind of assay: Antimicrobial activity against Leishmania. It counts as functional.
The next assay relates to Leishmania amazonensis. Kind of assay: Antimicrobial activity against Leishmania amazonensis. It counts as functional, organism-based.
The next assay deals with Leishmania major. Kind of assay: Antimicrobial activity against Leishmania major. It counts as functional, organism-based.
The test system of the next assay is Leishmania donovani. Kind of assay: Antimicrobial activity against Leishmania donovani. It counts as functional, organism-based.
In the next assay the test system is Toxoplasma gondii. Kind of assay: Antimicrobial activity against Toxoplasma gondii. It counts as functional, organism-based. As to conditions: Toxoplasma gondii.

A word on the IC50: it is the point on the concentration scale where inhibition reaches its midpoint. Lower therefore signals inhibition by little substance. In the case of `COc1ccc(OC)c(Cc2sc3nc(N)nc(N)c3c2C)c1`, in the assay on Cryptosporidium parvum, the IC50 worked out at 1 µM. Turning to `COc1cccc2c1cc1c3ccccc3nc-1n2C`, in the assay on Trypanosoma brucei, the IC50 was 1 µM.

Take `Cn1c2nc3ccc(C#N)cc3c-2cc2cc(C(F)(F)F)ccc21`: the IC50 in the assay with Trypanosoma cruzi and in the assay on Trypanosoma brucei was 32 µM throughout. Consider `Fc1ccc2[nH]c3nc4ccccc4c-3cc2c1`, for which the IC50 in the assay with Plasmodium falciparum, in the assay with Trypanosoma cruzi and in the assay on Trypanosoma brucei was 32 µM each time. In turn, `Cn1c2nc3ccccc3c-2cc2cc(Cl)ccc21` showed an IC50 with Trypanosoma brucei of 1 µM.

As to `Clc1ccc2[nH]c3nc4ccccc4c-3cc2c1`, the IC50 in the assay on Plasmodium falciparum, in the assay with Trypanosoma cruzi and in the assay on Trypanosoma brucei was 32 µM throughout. The compound `Clc1cc(Cl)c2[nH]c3nc4ccccc4c-3cc2c1` gave an IC50 with Trypanosoma brucei of 32 µM.

Turning to `N=C(N)c1cccc(C(=N)N)c1-c1cc2ccccc2[nH]1`, in the assay on Leishmania mexicana, inhibition was half-maximal at 3 µM (IC50). On to `C(=N\Nc1ccccc1)/c1ccc(N2CCN(c3ccc(/C=N/Nc4ccccc4)cc3)CC2)cc1`, for which, in the assay with Leishmania, the IC50 was 34 µM. In the assay with Cryptosporidium parvum, `Nc1nc(N)c2nc(Cc3ccc(Cl)cc3)c(Cc3ccc(Cl)cc3)nc2n1` showed an IC50 of 1 µM. Compound `Nc1nc(N)c2nc(Cc3ccc(Cl)c(Cl)c3)c(Cc3ccc(Cl)c(Cl)c3)nc2n1` had an IC50 in the assay with Cryptosporidium parvum of 4 µM. On the same count and under the same terms, the same measure for `Nc1nc(N)c2nc(CN3c4ccccc4CC4C=CC=CC43)cnc2n1` (centres undefined): 1 µM. Regarding `Nc1nc(N)c2nc(CN3c4ccccc4SC4C=CC=CC43)cnc2n1` (centres undefined), in the assay with Cryptosporidium parvum, 1 µM corresponded to half-maximal inhibition (IC50).

As to `Nc1nc(N)c2cc(CN3c4ccccc4C=CC4C=CC=CC43)cnc2n1` (centres undefined), in the assay on Cryptosporidium parvum, the IC50 is 1 µM. In turn, `CCCCC12CC3CC(C1)CC(NC)(C3)C2` came in with an IC50 in the assay with Trypanosoma brucei of 2 µM. Still for that read-out and setting: the same measure for `NCCCC12CC3CC(CC(C3)C1)C2`: 1 µM; for `CNC12CC3CC(C1)CC(C(C)C)(C3)C2`: 6 µM; for `CCCC1(N)CC(C)(C)CC(C)(C)C1`: 6 µM. On the same count and under the same terms, the same measure for `CCCC1(C)CC(C)(C)CC(C)(N)C1` (centres undefined): 2 µM; for `CCCC1(CCC)CC(C)(C)CC(C)(N)C1` (centres undefined): 1 µM; for `CCCC1CC(C)(C)CC(C)(N)C1` (centres undefined): 3 µM. Same read-out and setting: for `CCNC1(C)CC(C)(C)CC(C)(C)C1` the value was 6 µM.

Regarding `CCCC(C)NC(=O)c1ccc(N(C)Cc2cnc3nc(N)nc(N)c3n2)cc1` (centres undefined), in the assay on Cryptosporidium parvum, half-maximal inhibition (IC50) required 1 µM.

On to `CN(Cc1cnc2nc(N)nc(N)c2n1)c1ccc(C(=O)NC(CO)CCO)cc1` (centres undefined), for which inhibition in the assay on Cryptosporidium parvum was half-maximal at 2 µM (IC50). On to `Cn1c2nc3ccccc3c-2cc2ccc(Br)cc21`, for which the IC50 in the assay on Plasmodium falciparum stood at 30 µM; in the assay with Trypanosoma cruzi, 32 µM; in the assay on Trypanosoma brucei, 27 µM.

`Cn1c2nc3ccccc3c-2cc2ccc(C(F)(F)F)cc21`: the IC50 with Plasmodium falciparum stood at 16 µM; in the assay with Trypanosoma cruzi it was 32 µM; with Trypanosoma brucei, 17 µM. Turning to `Nc1nc(N)c2cc(/C=C/c3ccccc3)ccc2n1`, the IC50 with Cryptosporidium parvum stood at 1 µM. In turn, `COc1cc(Cc2csc3nc(N)nc(N)c23)c(Br)c(OC)c1OC` gave an IC50 in the assay with Cryptosporidium parvum of 3 µM.

`Nc1nc(N)c2c(n1)-c1ccsc1CC2`: the IC50 in the assay on Cryptosporidium parvum is 30 µM. Same read-out and setting: for `COc1cc(CN2CCc3nc(N)nc(N)c3C2)c(Br)c(OC)c1OC` the value was 3 µM. In the case of `C[C@]12CC[C@H](O)C[C@@H]1CC[C@@H]1[C@@H]2CC[C@@]2(C)[C@H]1CC[C@@H]2[C@@](C)(O)c1ccncc1`, the results for the IC50 with Leishmania amazonensis, in the assay with Leishmania major and in the assay on Trypanosoma cruzi were 1 µM, 12 µM and 1 µM, respectively. `C[C@]12CC[C@H](O)C[C@@H]1CC[C@@H]1[C@@H]2CC[C@@]2(C)[C@H]1CC[C@@H]2[C@@](C)(O)c1ccncc1Cl`: the figures for the IC50 in the assay with Leishmania amazonensis, with Leishmania major and in the assay with Trypanosoma cruzi were 1 µM, 8 µM and 1 µM, respectively. For `C[C@]12CC[C@H](O)C[C@@H]1CC[C@@H]1[C@@H]2CC[C@@]2(C)[C@H]1CC[C@@H]2[C@@](C)(O)C1CCCNC1` (some centres undefined), the IC50 with Leishmania major was found to be 13 µM; in the assay with Trypanosoma cruzi, 23 µM. `CCC(=O)N1CCCCC1[C@](C)(O)[C@H]1CC[C@H]2[C@@H]3CC[C@H]4C[C@@H](O)CC[C@]4(C)[C@H]3CC[C@@]21C` (some centres undefined): the IC50 is 54 µM in the assay with Leishmania major and 65 µM in the assay with Trypanosoma cruzi.

As for `C[C@]12CC[C@H](O)C[C@@H]1CC[C@@H]1[C@@H]2CC[C@@]2(C)[C@H]1CC[C@@H]2[C@@](C)(O)c1ccccn1`, the IC50 with Leishmania amazonensis is 3 µM; in the assay with Leishmania major, 100 µM; in the assay with Trypanosoma cruzi it was 1 µM. As for `C[C@]12CC[C@H](O)C[C@@H]1CC[C@@H]1[C@@H]2CC[C@@]2(C)[C@H]1CC[C@@H]2[C@@](C)(O)c1cccnc1`, the IC50 worked out at 100 µM in the assay with Leishmania major and 50 µM with Trypanosoma cruzi. With `COc1cc(CCc2cc3c(N)nc(N)nc3s2)c(Br)c(OC)c1OC`, in the assay with Cryptosporidium parvum, half-maximal inhibition (IC50) required 5 µM. Take `COc1cc(Cc2sc3nc(N)nc(N)c3c2C)c(Br)c(OC)c1OC`: the IC50 in the assay with Cryptosporidium parvum was 2 µM. `CN1CCN(C)C1c1ccc(N2CCN(c3ccc(C4N(C)CCN4C)cc3)CC2)cc1`: the IC50 was determined as 100 µM in the assay with Leishmania and 1 µM with Plasmodium falciparum. On to `COc1cc(Cc2sc3nc(N)nc(N)c3c2C)cc(OC)c1OC`, for which half-maximal inhibition with Cryptosporidium parvum (IC50) was put at 2 µM. For `Cn1c2nc3ccc(C#N)cc3c-2cc2ccccc21`, the IC50 with Plasmodium falciparum and with Trypanosoma brucei was 32 µM each time. As to `COc1ccc(OC)c(-c2sc3nc(N)nc(N)c3c2C)c1`, it took 1 µM to reach half-maximal inhibition in the assay on Cryptosporidium parvum (IC50). Turning to `COc1ccc2[nH]c3nc4ccccc4c-3cc2c1`, the IC50 in the assay with Plasmodium falciparum and with Trypanosoma brucei was 32 µM in each case. Compound `COc1cccc2nc(N)nc(N)c12` returned an IC50 in the assay with Cryptosporidium parvum of 3 µM. In turn, `CSc1ccc2c(c1)cc1c3ccccc3nc-1n2C` returned an IC50 in the assay with Trypanosoma brucei of 1 µM. On the same count and under the same terms, the same measure for `Cn1c2nc3ccccc3c-2cc2cc([N+](=O)[O-])ccc21`: 1 µM.

`Cn1c2nc3ccccc3c-2cc2ccc(Cl)cc21`: the IC50 in the assay on Plasmodium falciparum was 5 µM; with Trypanosoma cruzi, 17 µM; with Trypanosoma brucei, 9 µM. On to `COc1ccc(OC)c(NCc2ccc3nc(N)nc(N)c3n2)c1`, for which, in the assay on Cryptosporidium parvum, the IC50 is 1 µM.

In the case of `CCC1CCc2nc(N)nc(N)c2C1` (centres undefined), the IC50 in the assay with Cryptosporidium parvum was 9 µM. `Nc1nc(N)c2c(n1)CCC(c1ccccc1)C2` (centres undefined) yielded an IC50 in the assay on Cryptosporidium parvum of 2 µM.

With `Nc1nc(N)c2c(n1)CCC(Cc1ccsc1)C2` (centres undefined), the IC50 in the assay with Cryptosporidium parvum worked out at 1 µM. `C=CC(C)(C)c1cc(/C=C/C(=O)c2ccc(O)cc2)c(OC)cc1O` [LICOAGROCHACONE A] gave an IC50 in the assay on Leishmania major of 14 µM. On to `N=C(N)c1ccc(OCCCCCOc2ccc(C(=N)N)cc2)cc1` [PENTAMIDINE], for which the IC50 with Leishmania mexicana and with Leishmania donovani was 1 µM each time.

As for `N=C(N)c1ccc(OCCCOc2ccc(C(=N)N)cc2)cc1` [PROPAMIDINE], in the assay with Leishmania mexicana, it took 10 µM to reach half-maximal inhibition (IC50).

For `N=C(N)c1ccc(/C=C/c2ccc(C(=N)N)cc2)cc1` [STILBAMIDINE], the IC50 with Leishmania mexicana worked out at 9 µM.

In turn, `COc1cc(Cc2cnc(N)nc2N)cc(OC)c1OC` [TRIMETHOPRIM] gave an IC50 in the assay with Cryptosporidium parvum of 4 µM. Consider `NC[C@@H]1[C@H]2CN(c3nc4c(cc3F)c(=O)c(C(=O)O)cn4C3CC3)C[C@@H]12` [TROVAFLOXACIN9], for which the IC50 in the assay with Toxoplasma gondii was determined as 12 µM. For the compound `NCC12CC1CN(c1nc3c(cc1F)c(=O)c(C(=O)O)cn3C1CC1)C2` (centres undefined) [TROVAFLOXACIN10], the IC50 in the assay with Toxoplasma gondii amounted to 12 µM. The same measure, in the same setting: the same measure for `NC[C@@H]1[C@H]2CN(c3nc4c(cc3F)c(=O)c(C(=O)O)cn4-c3ccc(F)cc3F)C[C@@H]12` [TROVAFLOXACIN11]: 9 µM.

In turn, `C[C@H]1[C@H](C)CC[C@]2(C(=O)O)CC[C@]3(C)C(=CC[C@@H]4[C@@]5(C)CC[C@H](O)C(C)(C)[C@@H]5CC[C@]43C)[C@H]12` [URSOLIC ACID] displayed an IC50 with Toxoplasma gondii of 1 µM.
